Broadly, the CC50 is the concentration giving 50% cytotoxicity. Read a low CC50 as greater toxicity to the cells. Usually EC50 stands for the concentration needed to bring the measured effect to its halfway point.

The values below come from US11505543B2, “4-oxo-3,4-dihydroquinazoline compounds as inhibitors of human immunodeficiency virus replication” (VIIV HEALTHCARE UK (NO.5) LIMITED, priority 2018, dated 2022).

Assay type in all cases: cell-based
In one data set the test system is uninfected MT2 cells. The experiment in a line: Compound cytotoxicity, XTT-based colorimetric assay. The note with it: day 4, XTT. A digest of the protocol:
(§1)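 Run under the antiviral-assay protocol but without virus. Viability was read on day 4 and CC50 values were derived from the readout.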
Background: Formazan colour is commonly taken as a measure of viable cells.

Data set [1] deals with recombinant NL4-3 virus (nef section replaced with Renilla luciferase gene) in MT-2 cells. The experiment in a line: HIV cell culture assay (antiviral activity, luciferase readout). To be noted: serial dilutions of compound. A digest of the protocol:
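EC50 was derived by median-effect curve fitting of luciferase activity. The signal comes from MT-2 cells infected for 4–5 days with 293T-produced NL4-3 reporter virus, nef partly replaced by Renilla luciferase, in the presence of serially diluted compound.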

Data set [2] can be described thus: Compound cytotoxicity, XTT-based colorimetric assay. To be noted: human, uninfected MT2 cells, day 4, XTT. The method in brief:
as §1

[3] abbreviates: MT-2 cells infected for 4-5 days with recombinant NL4-3 Renilla luciferase virus.
[4] abbreviates: Renilla, NL43, MT-2 cells infected for 4-5 days with recombinant NL4-3 Renilla luciferase virus.

Compound `Cn1nc(NS(C)(=O)=O)c2c(Cl)ccc(-n3c([C@H](Cc4cc(F)cc(F)c4)NC(=O)Cn4ccc(C5CC5)n4)nc4cc(-c5ccccc5F)ccc4c3=O)c21` (single isomer, unassigned) [Example 4] gave a CC50 in the data set on uninfected MT2 cells of more than 1000 nM. For the same compound, in data set [1] (setting [3]), the EC50 amounted to 1.1 nM.
For `CC(C(=O)N[C@@H](Cc1cc(F)cc(F)c1)c1nc2cc(-c3ccccc3F)ccc2c(=O)n1-c1ccc(Cl)c2c(NS(=O)(=O)C3CC3)nn(CC(F)F)c12)n1ccc(C2CC2)n1` (single isomer, unassigned) [Example 138] the same measures were more than 500 nM and 9 nM.
`Cn1nc(NS(C)(=O)=O)c2c(Cl)ccc(-n3c([C@H](Cc4cc(F)cc(F)c4)NC(=O)Cn4nc(C(F)F)c5c4C(F)(F)[C@@H]4C[C@H]54)nc4cc(-c5ccccc5F)ccc4c3=O)c21` (single isomer, unassigned) [Example 6] showed a CC50 in the data set with uninfected MT2 cells of more than 1000 nM. Further, the EC50 in data set [1] (setting [3]) came to 0.3 nM.
In turn, `O=C(Cn1nc(C(F)F)c2c1C(F)(F)[C@@H]1C[C@H]21)N[C@@H](Cc1cc(F)cc(F)c1)c1nc2cc(-c3ccccc3F)ccc2c(=O)n1-c1ccc(Cl)c2c(NS(=O)(=O)C3CC3)nn(CC(F)F)c12` (atropisomer, axis not shown; (aR)) [Example 115, N-((S)-1-(3-(4-chloro-3-(cyclopropanesulfonamido)-1-(2,2-difluoroethyl)-1H-indazol-7-yl)-7-(2-fluorophenyl)-4-oxo-3,4-dihydroquinazolin-2-yl)-2-(3,5-difluorophenyl)ethyl)-2-((3bS,4aR)-3-(difluoromethyl)-5,5-difluoro-3b,4,4a,5-tetrahydro-1H-cyclopropa[3,4]cyclopenta[1,2-c]pyrazol-1-yl)acetamide] gave a CC50 in the data set with uninfected MT2 cells of more than 10000 nM. In addition, the EC50 in data set [1] (setting [4]) was 0.469 nM.
As for `O=C(Cn1nc(C(F)F)c2c1C(F)(F)[C@@H]1C[C@H]21)N[C@@H](Cc1cc(F)cc(F)c1)c1nc2cc(-c3ccccc3F)ccc2c(=O)n1-c1ccc(Cl)c2c(NS(=O)(=O)C3CC3)nn(CC(F)F)c12` (atropisomer, axis not shown; (aR)) [Example 8, N-((S)-1-(3-(4-chloro-3-(cyclopropanesulfonamido)-1-(2,2-difluoroethyl)-1H-indazol-7-yl)-7-(2-fluorophenyl)-4-oxo-3,4-dihydroquinazolin-2-yl)-2-(3,5-difluorophenyl)ethyl)-2-((3bS,4aR)-3-(difluoromethyl)-5,5-difluoro-3b,4,4a,5-tetrahydro-1H-cyclopropa[3,4]cyclopenta[1,2-c]pyrazol-1-yl)acetamide], in the data set with uninfected MT2 cells, the CC50 was more than 1000 nM. Further, the EC50 in data set [1] (setting [3]) turned out to be 0.613 nM.
In the data set with uninfected MT2 cells, `Cn1nc(NS(C)(=O)=O)c2c(Cl)ccc(-n3c([C@H](Cc4cc(F)cc(F)c4)NC(=O)Cn4nc(C(F)F)c5c4C(F)(F)[C@@H]4C[C@H]54)nc4cc(-c5ccccc5F)ccc4c3=O)c21` (single isomer, unassigned) [Example 5] showed a CC50 of more than 1000 nM. The concentration giving a half-maximal response (EC50) in data set [1] (setting [4]) was 62.7 nM.
In data set [2], `CS(=O)(=O)c1ccccc1-c1ccc2c(=O)n(-c3ccc(Cl)c4c(NS(=O)(=O)C5CC5)nn(CC(F)F)c34)c([C@H](Cc3cc(F)cc(F)c3)NC(=O)Cn3nc(C(F)F)c4c3C(F)(F)[C@@H]3C[C@H]43)nc2c1` [Example 160, N-((S)-1-(3-(4-chloro-3-(cyclopropanesulfonamido)-1-(2,2-difluoroethyl)-1H-indazol-7-yl)-7-(2-(methylsulfonyl)phenyl)-4-oxo-3,4-dihydroquinazolin-2-yl)-2-(3,5-difluorophenyl)ethyl)-2-((3bS,4aR)-3-(difluoromethyl)-5,5-difluoro-3b,4,4a,5-tetrahydro-1H-cyclopropa[3,4]cyclopenta[1,2-c]pyrazol-1-yl)acetamide] returned a CC50 at 4 day of more than 500 nM. Moreover, in data set [1] (setting [4]), the EC50 is 0.082 nM.
For `CS(=O)(=O)Nc1nn(CC(F)F)c2c(-n3c([C@H](Cc4cc(F)cc(F)c4)NC(=O)Cn4nc(C(F)F)c5c4C(F)(F)[C@@H]4C[C@H]54)nc4cc(-c5ncccn5)ccc4c3=O)ccc(Cl)c12` (atropisomer, axis not shown; (aR)) [Example 124, N-((S)-1-(3-(4-chloro-1-(2,2-difluoroethyl)-3-(methylsulfonamido)-1H-indazol-7-yl)-4-oxo-7-(pyrimidin-2-yl)-3,4-dihydroquinazolin-2-yl)-2-(3,5-difluorophenyl)ethyl)-2-((3bS,4aR)-3-(difluoromethyl)-5,5-difluoro-3b,4,4a,5-tetrahydro-1H-cyclopropa[3,4]cyclopenta[1,2-c]pyrazol-1-yl)acetamide] the same measures were more than 500 nM and 0.058 nM.
In the same order, the values of `CCS(=O)(=O)c1ccccc1-c1ccc2c(=O)n(-c3ccc(Cl)c4c(NS(C)(=O)=O)nn(C)c34)c([C@H](Cc3cc(F)cc(F)c3)NC(=O)Cn3nc(C(F)F)c4c3C(F)(F)[C@@H]3C[C@H]43)nc2c1` (atropisomer, axis not shown; (aR)) [Example 119, N-((S)-1-(3-(4-chloro-1-methyl-3-(methylsulfonamido)-1H-indazol-7-yl)-7-(2-(ethylsulfonyl)phenyl)-4-oxo-3,4-dihydroquinazolin-2-yl)-2-(3,5-difluorophenyl)ethyl)-2-((3bS,4aR)-3-(difluoromethyl)-5,5-difluoro-3b,4,4a,5-tetrahydro-1H-cyclopropa[3,4]cyclopenta[1,2-c]pyrazol-1-yl)acetamide] are more than 500 nM and 0.1 nM.
